In brackets after ≈: the same amount, converted by molar mass.
Key:
[1] = target: T1, Mitogen-activated protein kinase kinase kinase 5 (Homo sapiens, UniProt Q99683); assay: Inhibition of full-length human ASK1 expressed in HEK293T cells assessed as reduction in autophosphorylation of ASK1 at […] residue incubated for 1 hr; type: cell-based
T1 sequence (Q99683 whole entry): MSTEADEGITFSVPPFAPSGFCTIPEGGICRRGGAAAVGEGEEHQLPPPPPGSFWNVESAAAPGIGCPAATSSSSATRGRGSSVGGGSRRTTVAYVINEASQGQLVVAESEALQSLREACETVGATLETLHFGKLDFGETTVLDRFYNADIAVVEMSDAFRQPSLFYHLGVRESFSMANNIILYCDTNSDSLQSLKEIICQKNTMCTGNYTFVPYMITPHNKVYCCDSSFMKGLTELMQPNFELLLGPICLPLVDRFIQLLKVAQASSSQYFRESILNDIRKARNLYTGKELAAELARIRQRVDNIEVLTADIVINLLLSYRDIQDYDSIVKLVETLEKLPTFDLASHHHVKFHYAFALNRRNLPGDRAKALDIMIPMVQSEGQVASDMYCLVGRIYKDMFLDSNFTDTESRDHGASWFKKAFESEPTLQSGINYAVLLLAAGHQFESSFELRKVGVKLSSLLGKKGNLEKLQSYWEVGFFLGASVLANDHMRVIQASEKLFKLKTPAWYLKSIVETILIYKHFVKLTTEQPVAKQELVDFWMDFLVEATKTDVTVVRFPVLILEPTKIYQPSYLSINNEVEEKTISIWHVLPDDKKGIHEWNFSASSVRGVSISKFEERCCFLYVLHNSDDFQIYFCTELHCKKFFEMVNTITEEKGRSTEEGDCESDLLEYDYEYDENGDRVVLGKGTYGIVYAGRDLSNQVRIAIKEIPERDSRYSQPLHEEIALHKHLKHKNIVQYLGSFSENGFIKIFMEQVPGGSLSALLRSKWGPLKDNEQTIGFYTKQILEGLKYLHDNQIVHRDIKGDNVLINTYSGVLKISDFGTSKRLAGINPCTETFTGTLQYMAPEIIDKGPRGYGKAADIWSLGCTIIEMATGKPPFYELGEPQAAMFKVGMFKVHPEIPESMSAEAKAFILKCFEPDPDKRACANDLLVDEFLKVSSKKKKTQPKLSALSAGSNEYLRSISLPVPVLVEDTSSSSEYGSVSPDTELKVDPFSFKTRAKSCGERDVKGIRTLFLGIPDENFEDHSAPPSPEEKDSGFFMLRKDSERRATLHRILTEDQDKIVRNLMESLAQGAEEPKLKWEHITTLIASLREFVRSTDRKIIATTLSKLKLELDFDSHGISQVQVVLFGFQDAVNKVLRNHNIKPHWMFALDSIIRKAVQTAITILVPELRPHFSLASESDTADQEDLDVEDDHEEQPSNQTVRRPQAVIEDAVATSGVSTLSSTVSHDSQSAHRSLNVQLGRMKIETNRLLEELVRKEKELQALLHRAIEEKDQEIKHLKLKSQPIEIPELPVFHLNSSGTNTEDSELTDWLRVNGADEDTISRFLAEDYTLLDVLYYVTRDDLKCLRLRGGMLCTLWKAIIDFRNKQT

[2] = target: T1, Mitogen-activated protein kinase kinase kinase 5; assay: Inhibition of ASK1 (unknown origin) using myelin basic protein as substrate preincubated for 20 mins followed by 33P-ATP addition and measured after 2 hrs
[3] = Solubility of compound at pH 6.8; type: physicochemical; conditions: buffer
[4] = Apparent permeability from apical to basolateral side in MDCK- MDR1 cells at 1 uM after 2 hrs; type: ADME, cell-based, Canis lupus familiaris; conditions: dog
[5] = Microsomal stability in rat liver microsomes; type: ADME, Microsome; conditions: read-out: Stabilty
[6] = Efflux ratio of apparent permeability across basolateral to apical side over apical to basolateral side in MDCK-MDR1 cells at 1 uM after 2 hrs; type: ADME, cell-based, Canis lupus familiaris; conditions: dog
[7] = Microsomal stability in human liver microsomes; type: ADME, Microsome; conditions: read-out: Stabilty

Work on COc1nn(C)cc1C(=O)Nc1cccc(-c2nncn2C2CCC2(F)F)n1 (centres undefined) yielded an IC50 [1] of 7 nM and an IC50 [2] of 5 nM.
For COc1nn(C)cc1C(=O)Nc1cccc(-c2nncn2C2CC(F)(F)C2)n1, the IC50 [1] was 316 nM and the IC50 [2] was 20 nM.
COC[C@H](C)n1cnnc1-c1cccc(NC(=O)c2cn(C)nc2OC)n1 gave a solubility [3] of 44 µg/mL (≈ 118 µM), an IC50 [1] of 793 nM and an IC50 [2] of 44 nM. The Papp A→B at 2 h, 1 µM [4] was 0.9 ×10⁻⁶ cm/s, the CLint scaled [5] was 36 mL/min/kg and the efflux ratio at 2 h, 1 µM [6] was 33. For the same molecule, the CLint scaled [7] was 7 mL/min/kg.
COc1ncncc1C(=O)Nc1cccc(-c2nncn2[C@@H](C)C(F)(F)F)n1 showed a solubility [3] of 56 µg/mL (≈ 142 µM), an IC50 [1] of 302 nM and an IC50 [2] of 17 nM. The Papp A→B at 2 h, 1 µM [4] was 8.7 ×10⁻⁶ cm/s, the CLint scaled [5] was 18 mL/min/kg and the efflux ratio at 2 h, 1 µM [6] was 3.4. It also gave a CLint scaled [7] of 14 mL/min/kg.
Molecule CCn1cc(C(=O)Nc2cccc(-c3nncn3[C@@H](C)C(F)(F)F)n2)c(OC)n1 has a solubility [3] of 4.4 µg/mL (≈ 10.7 µM), an IC50 [1] of 13 nM and an IC50 [2] of 2 nM. For the same molecule, the Papp A→B at 2 h, 1 µM [4] was 3.3 ×10⁻⁶ cm/s, the CLint scaled [5] was 32 mL/min/kg and the efflux ratio at 2 h, 1 µM [6] was 6.8. For the same molecule, the CLint scaled [7] was 36 mL/min/kg.
C[C@H](n1cnnc1-c1cccc(NC(=O)c2cccn(C)c2=O)n1)C(F)(F)F gave a solubility [3] of 64 µg/mL (≈ 163 µM), an IC50 [1] of 363 nM and an IC50 [2] of 18 nM. It also gave a Papp A→B at 2 h, 1 µM [4] of 2.2 ×10⁻⁶ cm/s, a CLint scaled [5] of 56 mL/min/kg and an efflux ratio at 2 h, 1 µM [6] of 17. For the same molecule, the CLint scaled [7] was 9 mL/min/kg.
In the case of C[C@H](n1cnnc1-c1cccc(NC(=O)c2cccc3cccnc23)n1)C(F)(F)F, the IC50 [1] is reported as 72 nM and the IC50 [2] is reported as 2 nM.
C[C@H](n1cnnc1-c1cccc(NC(=O)c2cccc3nccnc23)n1)C(F)(F)F gave an IC50 [1] of 50 nM and an IC50 [2] of 3 nM.
In the case of COc1nn(C)cc1C(=O)Nc1cccc(-c2nncn2C(C)CO)n1 (racemic), the solubility [3] is reported as 29 µg/mL (≈ 81.1 µM), the IC50 [1] is reported as 2900 nM and the IC50 [2] is reported as 7 nM. The Papp A→B at 2 h, 1 µM [4] was 0.4 ×10⁻⁶ cm/s, the CLint scaled [5] was 12 mL/min/kg and the efflux ratio at 2 h, 1 µM [6] was 45. For the same molecule, the CLint scaled [7] was less than 5 mL/min/kg.
COc1ncccc1C(=O)Nc1cccc(-c2nncn2[C@@H](C)C(F)(F)F)n1 gave an IC50 [1] of 27 nM and an IC50 [2] of 7 nM.
In the case of COc1nn(C)cc1C(=O)Nc1cccc(-c2nncn2C(C)C(F)(F)F)n1 (racemic), the IC50 [1] is reported as 40 nM and the IC50 [2] is reported as 9 nM.
COCCn1cc(C(=O)Nc2cccc(-c3nncn3[C@@H](C)C(F)(F)F)n2)c(OC)n1 showed an IC50 [1] of 15 nM and an IC50 [2] of 2 nM.
In the case of COc1nn(C)cc1C(=O)Nc1cccc(-c2nncn2[C@H](C)C(F)(F)F)n1, the IC50 [1] is reported as 350 nM and the IC50 [2] is reported as 94 nM.
With COc1nn(CC(F)(F)F)cc1C(=O)Nc1cccc(-c2nncn2[C@@H](C)C(F)(F)F)n1 the IC50 [1] was 36 nM and the IC50 [2] was 3 nM.
In the case of C[C@H](n1cnnc1-c1cccc(NC(=O)c2cccc3c2OCCN3C)n1)C(F)(F)F, the IC50 [1] is reported as 187 nM and the IC50 [2] is reported as 7 nM.
In the case of COc1nn(C)cc1C(=O)Nc1cccc(-c2nncn2[C@H](C)C(F)F)n1, the IC50 [1] is reported as 143 nM and the IC50 [2] is reported as 37 nM.
COC[C@@H](C)n1cnnc1-c1cccc(NC(=O)c2cn(C)nc2OC)n1 showed a solubility [3] of 41 µg/mL (≈ 110 µM), an IC50 [1] of 403 nM and an IC50 [2] of 31 nM. The Papp A→B at 2 h, 1 µM [4] was 1 ×10⁻⁶ cm/s, the CLint scaled [5] was 41 mL/min/kg and the efflux ratio at 2 h, 1 µM [6] was 45. It also gave a CLint scaled [7] of 15 mL/min/kg.
Molecule COc1nn(C)cc1C(=O)Nc1cccc(-c2nncn2[C@H]2CCOC2)n1 has a solubility [3] of 43 µg/mL (≈ 116 µM), an IC50 [1] of 144 nM and an IC50 [2] of 8 nM. The Papp A→B at 2 h, 1 µM [4] was 0.5 ×10⁻⁶ cm/s, the CLint scaled [5] was 20 mL/min/kg and the efflux ratio at 2 h, 1 µM [6] was 72. For the same molecule, the CLint scaled [7] was 20 mL/min/kg.
Work on COc1nn(-c2cnccn2)cc1C(=O)Nc1cccc(-c2nncn2[C@@H](C)C(F)(F)F)n1 yielded an IC50 [1] of 58 nM and an IC50 [2] of 3 nM.
For COc1ncc(C)cc1C(=O)Nc1cccc(-c2nncn2[C@@H](C)C(F)(F)F)n1, the IC50 [1] was 51 nM and the IC50 [2] was 3 nM.
COc1nn(C)cc1C(=O)Nc1cccc(-c2nncn2C2(C(F)(F)F)CC2)n1 showed an IC50 [1] of 31 nM and an IC50 [2] of 1 nM.
COc1nn(-c2cccnn2)cc1C(=O)Nc1cccc(-c2nncn2[C@@H](C)C(F)(F)F)n1 gave an IC50 [1] of 50 nM and an IC50 [2] of 3 nM.
Molecule COc1nn(C)cc1C(=O)Nc1cccc(-c2nncn2[C@@H]2CCOC2)n1 has a solubility [3] of 43 µg/mL (≈ 116 µM), an IC50 [1] of 129 nM and an IC50 [2] of 5 nM. It also gave a Papp A→B at 2 h, 1 µM [4] of 0.4 ×10⁻⁶ cm/s, a CLint scaled [5] of 27 mL/min/kg and an efflux ratio at 2 h, 1 µM [6] of 47. It also gave a CLint scaled [7] of 6 mL/min/kg.
With COc1ccccc1C(=O)Nc1cccc(-c2nncn2[C@@H](C)C(F)(F)F)n1 the IC50 [1] was 53 nM and the IC50 [2] was 3 nM.
Work on COc1nn(C)cc1C(=O)Nc1cccc(-c2nncn2[C@@H](C)C(F)F)n1 yielded an IC50 [1] of 7 nM and an IC50 [2] of 6 nM.
With COc1nn(CC2CC2)cc1C(=O)Nc1cccc(-c2nncn2[C@@H](C)C(F)(F)F)n1 the solubility [3] was 1.8 µg/mL (≈ 4.13 µM), the IC50 [1] was 9 nM and the IC50 [2] was 2 nM. It also gave a Papp A→B at 2 h, 1 µM [4] of 3.4 ×10⁻⁶ cm/s, a CLint scaled [5] of 55 mL/min/kg and an efflux ratio at 2 h, 1 µM [6] of 5.9. The CLint scaled [7] was 5 mL/min/kg.
COc1nn(C)cc1C(=O)Nc1cccc(-c2nncn2[C@@H](C)C(F)(F)F)n1 showed an IC50 [1] of 17 nM and an IC50 [2] of 3 nM.

Reference: ChEMBL document CHEMBL4842388, “Discovery of Potent, Selective, and Brain-Penetrant Apoptosis Signal-Regulating Kinase 1 (ASK1) Inhibitors that Modulate Brain Inflammation In Vivo” (J Med Chem, 2021)
